What all share (assay type): cell-based
Assay [1] concerns human embryonic stem cells (H9 line). The assay is described as follows: High content screening assay: cell number (proliferative response). The settings on record: for fold induction at 10 µM: Homo sapiens, Embryonic stem cell, read-out: Proliferative Response, Fold over Wnt 3a/AA control. The procedure:
(§1) Maintenance of human embryonic stem cells (H9 line) was conducted as described in Example 1. Colonies of cells were maintained in an undifferentiated, pluripotent state with passage on average every four days. Passage was performed by exposing cell cultures to a solution of collagenase (1 mg/ml; Sigma-Aldrich) for 10 to 30 minutes at 37° C. followed by gentle scraping with a pipette tip to recover cell clusters. Clusters were allowed to sediment by gravity, followed by washing to remove residual collagenase. Cell clusters were split at a 1:3 ratio for routine maintenance culture or a 1:1 ratio for immediate assay. The human embryonic stem cell lines used were maintained at passage numbers less than passage 50 and routinely evaluated for normal karyotypic phenotype and absence of mycoplasma contamination.
(§2) Cell clusters used in the assay were evenly resuspended in normal culture medium and plated onto MATRIGEL-coated 96-well Packard VIEWPLATES (PerkinElmer) in volumes of […]. MEF conditioned medium supplemented with 8 ng/ml bFGF was used for initial plating and recovery. Daily feeding was conducted by aspirating spent culture medium from each well and replacing with an equal volume of fresh medium. Plates were maintained at 37° C., 5% CO2 in a humidified box throughout the duration of assay.
(§3) Screening was conducted using test compounds from a proprietary library of small molecules selected for their ability to inhibit GSK-3B enzyme activity. Compounds from this library were made available as 1 mM stocks, in a 96-well plate format in 50 mM HEPES, 30% DMSO. Screening compounds were tested in triplicate or duplicate sets. Primary screening assays were initiated by aspirating culture medium from each well followed by three washes in PBS to remove residual growth factors and serum. Test volumes of 80 to 100 μl per well were added back containing DMEM:F12 base medium (Invitrogen) supplemented with 0.5% FCS (HyClone) and 100 ng/ml activin A (R&D Biosystems) plus 10 μM test compound. Positive control wells contained the same base medium, substituting 10-20 ng/ml Wnt3a (R&D Biosystems) for the test compound. Negative control wells contained base medium with 0.5% FCS and activin A alone (AA only) or alternatively, 0.5% FCS without activin A or Wnt3a (no treatment). Wells were aspirated and fed again with identical solutions on day 2 of assay. On days 3 and 4, all assay wells were aspirated and converted to DMEM:F12 supplemented with 2% FCS and 100 ng/ml activin A (without test compound or Wnt3a); parallel negative control wells were maintained in DMEM:F12 base medium with 2% FCS and activin A (AA only) or alternatively, 2% FCS without activin A (no treatment).
(§4) At the end of culture, cells in 96-well plates were fixed with 4% paraformaldehyde at room temperature for 20 minutes, washed three times with PBS, and then permeabilized with 0.5% Triton X-100 for 20 minutes at room temperature. Alternatively, cells were fixed with ice cold 70% ethanol overnight at −20° C., washed three times with PBS, and then permeabilized with Triton X-100 for 5 minutes at 4° C. After fixing and permeabilizing, cells were washed again three times with PBS and then blocked with 4% chicken serum (Invitrogen) in PBS for 30 minutes at room temperature. Primary antibodies (goat anti-human Sox17 and goat anti-human HNF-3beta; R&D Systems) were diluted 1:100 in 4% chicken serum and added to cells for one hour at room temperature. Alexa Fluor 488 conjugated secondary antibody (chicken anti-goat IgG; Molecular Probes) was diluted 1:200 in PBS and added after washing the cells three times with PBS. To counterstain nuclei, 5 mM Draq5 (Alexis Biochemicals) was added for five minutes at room temperature. Cells were washed once with PBS and left in […] PBS for imaging.
(§5) Cells were imaged using an IN Cell Analyzer 1000 (GE Healthcare) utilizing the 51008bs dichroic for cells stained with Draq5 and Alexa Fluor 488. […]

The subject of assay [2] is Sox17 expression in human embryonic stem cells (H9 line). Kind of assay: High content screening assay: Sox17 protein expression (differentiation). The settings on record: for SOX-17 Expression Fold over Wnt 3a/AA control: total intensity normalised to Wnt 3a/AA control. The procedure: as §1, §2, §3, §4, §5
In assay [3] the test system is HNF-3beta expression in human embryonic stem cells (H9 line). Kind of assay: High content screening assay: HNF-3beta protein expression (differentiation). The settings on record: for HNF-3b Expression Fold over Wnt 3a/AA control: total intensity normalised to Wnt 3a/AA control. The procedure:
as §1, §2, §3, §4, §5

Assay [4] concerns cells expressing pluripotency markers derived from human embryonic stem cells. The assay is described as follows: MTS viability (toxicity) assay of cells expressing pluripotency markers. More on the design: Raw data (duplicate), first replicate / Average: unit not given here. Conditions: for Raw data (duplicate), first replicate / Raw data (duplicate), second replicate: MTS viability assay raw reading; for Raw data (duplicate), first replicate: replicate 1; for Raw data (duplicate), second replicate: replicate 2; for Average: average of duplicate MTS raw readings; for % Control / viability at 10 µM: viability of cells expressing pluripotency markers, relative to control; for viability at 10 µM: Homo sapiens, Embryonic stem cell. Put shortly:
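A GSK-3B inhibitor library was screened for toxicity to pluripotency-marker-expressing cells. Compound was given in DMEM:F12 with 0.5% FCS and 100 ng/ml Activin A for two days, then replaced by medium with 2% FCS and Activin A. On day 4, MTS absorbance at 490 nm gave viability as percent of Activin A plus Wnt3a control wells.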
Background: Formazan colour is commonly taken as a measure of viable cells.

The mark [5] stands for this setting: 10 μM test compound with 100 ng/ml activin A on days 1-2, H9, total cell number by IN Cell Analyzer, strong and moderate hits.
Where [6] appears, read: cell number in the wells analysed for HNF-3b expression.
The mark [7] stands for this setting: cell number in the wells analysed for HNF-3b expression, normalised to Wnt 3a/AA control.
The mark [8] stands for this setting: cell number in the wells analysed for SOX-17 expression.
[9] abbreviates: cell number in the wells analysed for SOX-17 expression, normalised to Wnt 3a/AA control.
[10] abbreviates: 10 μM test compound with 100 ng/ml activin A on days 1-2, H9, total intensity by IN Cell Analyzer, strong and moderate hits.

Values joined by “and” are separate entries in the source; they are usually repeats but may differ in a detail not shown here. Identical values can stand only once.

In the case of `O=C1CCCCn2cc(c3cccnc32)C2=C(C(=O)NC2=O)c2cn(c3ncccc23)CCCC1` [Compound 11, 8,9,11,12,13,14-Hexahydro-6H,21H-5,24:15,20-di(metheno)dipyrido[2,3-b:3′,2′-h]pyrrolo[3,4-e][1,10]diazacyclononadecine-10,21,23(7H,22H)-trione], in assay [1] (setting [5]), the “Proliferative Response Fold over Wnt 3a/AA control” value (shortened to “Proliferative Response Fold”) is given as 0.6025 Fold over Wnt 3a/AA control. Further, the “Proliferative Response Total cells” value in assay [1] (setting [6]) is given as 3043. Further, in assay [1] (setting [7]), the “Proliferative Response Fold” value is recorded as 0.6025 fold. Further, the “Proliferative Response Total cells” value in assay [1] (setting [8]) is 2892.5. Besides, in assay [1] (setting [9]), the “Proliferative Response Fold” value worked out at 0.363 fold. Moreover, the “SOX17 Expression, Fold over Wnt 3a/AA control” value (shortened to “SOX17 Expression, Fold”) in assay [2] (setting [10]) is 0.5686 Fold over Wnt 3a/AA control. In addition, in assay [2], the “SOX-17 Expression Total Intensity” value came out at 213165000 and the “SOX-17 Expression Fold over Wnt 3a/AA control” value (from here on “SOX-17 Expression Fold”) amounted to 0.5686 fold. Further, the “HNF3β Expression, Fold over Wnt 3a/AA control” value (“HNF3β Expression, Fold” for short) in assay [3] (setting [10]) was 0.5866 Fold over Wnt 3a/AA control. Besides, in assay [3], the “HNF-3b Expression Total Intensity” value is given as 269570000 and the “HNF-3b Expression Fold over Wnt 3a/AA control” value (“HNF-3b Expression Fold” for short) came out at 0.5866 fold. Also, in assay [4], the “Raw data (duplicate), first replicate” value is reported as 0.743; the “Raw data (duplicate), second replicate” value was found to be 0.638; the Average came out at 0.691; the “% Control” value worked out at 84.1%.

For orientation: viability means a read-out of living cells in per cent, often relative to untreated cells. For `CN(C)CCCn1cc(C2=C(c3ccccc3Cl)C(=O)NC2=O)c2cccnc21` [Compound 12, 3-(2-Chlorophenyl)-4-{1-[3-(dimethylamino)propyl]-1H-pyrrolo[2,3-b]pyridin-3-yl}-1H-pyrrole-2,5-dione], the “Proliferative Response Total cells” value in assay [1] (setting [6]) came to 2410. Also, in assay [1] (setting [8]), the “Proliferative Response Total cells” value was 2460.5. For the same compound, the “SOX-17 Expression Total Intensity” value in assay [2] is 203350000. Further, the “HNF-3b Expression Total Intensity” value in assay [3] was found to be 209795000. Also, in assay [4], the viability at 10 µM amounted to 4.8%; the “Raw data (duplicate), first replicate” value was found to be 0.148; the “Raw data (duplicate), second replicate” value was 0.152; the Average is recorded as 0.150.

Turning to `O=C1NC(=O)C(c2nn(CCCO)c3ccccc23)=C1c1cn(-c2ccc3ccccc3c2)c2ccccc12` [Compound 13], the fold induction at 10 µM in assay [1] (setting [5]) was found to be 0.902. In addition, in assay [1] (setting [6]), the “Proliferative Response Total cells” value is 4556. For the same compound, in assay [1] (setting [8]), the “Proliferative Response Total cells” value was found to be 4783. Moreover, the fold induction at 10 µM in assay [2] (Homo sapiens, Embryonic stem cell, 10 μM test compound with 100 ng/ml activin A on days 1-2, H9, total intensity by IN Cell Analyzer, strong and moderate hits, read-out: SOX17 Expression, Fold over Wnt 3a/AA control) stood at 0.817. Also, in assay [2], the “SOX-17 Expression Total Intensity” value is given as 306085000. The “HNF3β Expression, Fold” value in assay [3] (setting [10]) is 0.7104 Fold over Wnt 3a/AA control. Moreover, the “HNF-3b Expression Total Intensity” value in assay [3] amounted to 326475000. In addition, in assay [4], the viability at 10 µM is 92.6%; the “Raw data (duplicate), first replicate” value was 0.767; the “Raw data (duplicate), second replicate” value came to 0.789; the Average is reported as 0.778.

In the case of `O=C1NC(=O)C(c2cn(-c3cccnc3)c3ccccc23)=C1c1n[nH]c2ccccc12` [Compound 14], the fold induction at 10 µM in assay [1] (setting [5]) came out at 1.05; in assay [3] (Homo sapiens, Embryonic stem cell, 10 μM test compound with 100 ng/ml activin A on days 1-2, H9, total intensity by IN Cell Analyzer, strong and moderate hits, read-out: HNF3β Expression, Fold over Wnt 3a/AA control), 0.869. Moreover, in assay [2] (setting [10]), the “SOX17 Expression, Fold” value is 1.0080 Fold over Wnt 3a/AA control. Further, the viability at 10 µM in assay [4] was found to be 95.1%.

Turning to `CCN1CCOCCn2cc(c3ccccc32)C2=C(C(=O)NC2=O)c2cn(c3ccccc23)CCOCC1` [Compound 15, 11-Ethyl-6,7,10,11,12,13,15,16-octahydro-9H,23H-5,26:17,22-di(metheno)dibenzo[k,q]pyrrolo[3,4-n][1,7,4,10,19]dioxatriazacyclohenicosine-23,25(24H)-dione], the “Proliferative Response Fold” value in assay [1] (setting [5]) is 1.3217 Fold over Wnt 3a/AA control and 1.0269 Fold over Wnt 3a/AA control. Further, in assay [1] (setting [6]), the “Proliferative Response Total cells” value was 5186. Further, the “Proliferative Response Fold” value in assay [1] (setting [7]) came out at 1.027 fold. Besides, the “Proliferative Response Total cells” value in assay [1] (setting [8]) came to 10533. The “Proliferative Response Fold” value in assay [1] (setting [9]) is listed as 1.322 fold. Also, in assay [2] (setting [10]), the “SOX17 Expression, Fold” value is listed as 1.2678 Fold over Wnt 3a/AA control. Besides, in assay [2], the “SOX-17 Expression Total Intensity” value worked out at 475250000 and the “SOX-17 Expression Fold” value is recorded as 1.2678 fold. Also, in assay [3] (setting [10]), the “HNF3β Expression, Fold” value is listed as 0.8807 Fold over Wnt 3a/AA control. Further, in assay [3], the “HNF-3b Expression Total Intensity” value is recorded as 404710000 and the “HNF-3b Expression Fold” value is 0.8807 fold. In assay [4], the “Raw data (duplicate), first replicate” value stood at 0.162; the “Raw data (duplicate), second replicate” value came out at 0.134; the Average worked out at 0.148; the “% Control” value worked out at 4.5%.

In the case of `O=C1NC(=O)C2=C1c1cn(c3ncccc13)CCOCCOCCOCCn1cc2c2cccnc21` [Compound 167], the “Proliferative Response Fold” value in assay [1] (setting [5]) is recorded as 0.9928 Fold over Wnt 3a/AA control. Besides, the “Proliferative Response Total cells” value in assay [1] (setting [6]) turned out to be 5013. The “Proliferative Response Fold” value in assay [1] (setting [7]) amounted to 0.9928 fold. For the same compound, the “Proliferative Response Total cells” value in assay [1] (setting [8]) is 6217. Further, in assay [1] (setting [9]), the “Proliferative Response Fold” value came to 0.7801 fold. For the same compound, the “SOX17 Expression, Fold” value in assay [2] (setting [10]) is listed as 0.9014 Fold over Wnt 3a/AA control. In assay [2], the “SOX-17 Expression Total Intensity” value amounted to 337920000 and the “SOX-17 Expression Fold” value was determined as 0.9014 fold. In addition, the “HNF3β Expression, Fold” value in assay [3] (setting [10]) is 0.9515 Fold over Wnt 3a/AA control. In addition, in assay [3], the “HNF-3b Expression Total Intensity” value was found to be 437235000 and the “HNF-3b Expression Fold” value amounted to 0.9515 fold. Further, in assay [4], the “Raw data (duplicate), first replicate” value came out at 0.804; the “Raw data (duplicate), second replicate” value is on record as 0.903; the Average is 0.853; the “% Control” value was found to be 109.0%.

These data come from patent US20130337564A1, “Treatment of Pluripotent Cells” (Janssen Biotech, Inc., priority 2012, published 2013).
